“Also recorded” adds a separate entry of the source. Read-outs that look alike come from different tables or passages of the source. Where only a bound is given, the exact number is not on record here.

Data set [1] has as its system human cell lines (HepG2, HCT-116, HEK-293, and HeLa). The data set can be described thus: Cytotoxicity on human cell lines, average / overall, and therapeutic index. The class given is cell-based. To be noted: up to 900 µM, HCT-116, HepG2, HEK-293.
A further data set has as its system HCT116. The data set can be described thus: Cytotoxicity on human cell line (MTT). The class given is cell-based. Particulars: HCT-116, 72 h. The protocol:
(§1) HeLa, HepG2, HEK293, and HCT116 cell lines were obtained from the American Type Culture Collection (ATCC) and maintained in Dulbecco’s modified Eagle’s medium (DMEM) (Invitrogen 11995–065) containing 25 mM glucose, 1 mM sodium pyruvate, and supplemented with 5 mM HEPES, 10% FBS, and penicillin-streptomycin (50 U/mL penicillin, 50 µg/mL streptomycin). Cells were seeded in a 96-well tissue culture plate (20,000 cells per well) and allowed to adhere for 24 hours, after which they were treated with a 12-step 2-fold serial dilution of each drug starting at 1 mM as the highest final concentration. Cells maintained in the medium supplemented with either 0.1% or 10% DMSO were used as negative and positive vehicle controls, respectively. The plates were incubated at 37 °C for 72 h, after which each well was incubated with 0.5 mg/mL of MTT reagent (MP Chemicals #02102227) for 4 h in the dark at 37 °C. The formazan crystals formed by living cells were solubilized with the addition of 100 µL of DMSO to each well. We measured the OD590nm using a SpectraMax plate reader. From the obtained OD values, percent cell viability was estimated by normalizing to the mean of 10% DMSO wells (set as 100% toxicity) and mean of the vehicle control wells (set as 0% toxicity). Dose-response curves were plotted using GraphPad Prism version 9.1.2.

A further data set concerns HepG2. Put plainly: Cytotoxicity on human cell line (MTT). The class given is cell-based. To be noted: 72 h. As to the method: as §1
A further data set has as its system HeLa. The data set can be described thus: Cytotoxicity on human cell line (MTT). The class given is cell-based. To be noted: 72 h. As to the method:
as §1

Another data set deals with HEK293. Put plainly: Cytotoxicity on human cell line (MTT). Particulars: 72 h. The class given is cell-based. The protocol: as §1
In the next data set the test system is B. microti (LabS1). Put plainly: In vivo efficacy in SCID mouse model of B. microti infection. Set-up: species or system CB17/SCID mice. As to the method:
Building on the promising efficacy of JPC-2056 against B. duncani parasites in vivo, we extended our investigation to assess the efficacy of this compound against B. microti (ATCC LabS1) in the SCID (severely combined immunodeficient) mouse model of infection following inoculation with a 1 × 10^4 infected erythrocytes.
(§2) Both C3H/HeJ and CB17/SCID mice aged 5–6 weeks (4 to 5 mice per group in each of the studies described herein) were injected intravenously with (1 × 10^4 iRBCs) of B duncani (WA-1) and B. microti (LabS1) parasites, respectively. The infected mice were treated by oral gavage over 10 days (DPI −1 to 10). During the treatment, each mouse received 100 µL of either vehicle (PEG-400) or prodrug JPC-2056 (30 mg/kg). Percent parasitemia was determined by counting at least 3,000 RBCs from Giemsa-stained […] blood smears.

The target of data set [2] is T1, B. duncani DHFR-TS (Babesia duncani, UniProt A0AAD9UQZ8). The data set can be described thus: Enzyme inhibition assay: DHFR activity of purified DHFR-TS. The class given is biochemical. The protocol:
(§3) The inhibition of DHFR activity with selected JPC derivatives was measured as previously described ([59]). Briefly, the purified enzyme (0.1 µM) (supporting information) (Fig. S7) was incubated with increasing concentrations of JPC-2067 or JPC-2056 in a reaction buffer containing 300 µM DHF and 300 µM NADPH. OD340 reduction rate (OD340/min) was measured for further calculation. The % inhibition was calculated using the formula:
(§4) =1−((OD340/min)sample−(OD340/min)negative control)/((OD340/min)positive control−(OD340/min)negative control)
(§5) The IC50 was determined from a sigmoidal dose-response curve using GraphPad Prism version 9.1.2.
(§6) Dihydrofolate reductase-thymidylate synthase (DHFR-TS) gene from B. duncani (BdDHFR-TS BdWA1_001462) and B. microti (BmDHFR-TS BMR1_02g03680) were cloned into pMAL-c4x by GenScript USA Inc. Both enzymes were expressed as fusion proteins with N’-terminal maltose binding protein (MBP) tag. Constructs of pMAL-c4x-BdDHFR-TS and pMAL-c4x-BmDHFR-TS were transformed by heat shock into E. coli BL-21(DE3). E. coli BL-21(DE3) harboring pMAL-c4x-DHFR-TS was grown overnight in 2 ml LB ampicillin (100 µg/mL). Cultures were diluted 100-fold in fresh LB medium with 0.2% glucose and grown to A600 of ~0.5 at 37°C. DHFR-TS expression was induced by the addition of 0.5 mM isopropyl thiogalactoside (IPTG) followed by growth for overnight at 16°C or at room temperature (RT). The cells were harvested by centrifugation (8,000 × g × 10 min, 4°C), washed by resuspension in water, and re-centrifuged. Cells were used directly for purification or kept frozen at -20°C. Prior to enzyme purification, cells were re-suspended in binding buffer containing 25 mM Tris-HCl pH 8, 500 mM NaCl, 0.5% glycerol, and 50mM L-arginine. Cells were supplemented benzonase DNAse (250U/µl) and 3-((3-cholamidopropyl) dimethylammonio)-1-propanesulfonate (CHAPS) (0.002%) and were disrupted by sonication on ice using Omni Sonic Ruptor 400 Ultrasonic Homogenizer (15-sec burst at 70% amplitude, 3 times, with 30-sec cooling intervals). A soluble supernatant was prepared by centrifugation (16,000 × g × 20 min) of the cells sonicate.
(§7) Recombinant DHFR-TSs were purified from the clear cell extract supernatant using amylose resin (NEB), methotrexate-agarose beads, and in some cases size exclusion chromatography (SEC). Briefly, soluble supernatant was incubated with amylose beads in binding buffer with gentle agitation for 1h at 4°C. Following enzyme adsorption, the affinity matrix was transferred to a column and unbound proteins were removed by washing with binding buffer. Purified enzymes were eluted with elution buffer containing 10 mM maltose. Amylose elution fractions were loaded onto MTX-agarose resin and purified DHFR-TS enzymes were eluted using 2 mM dihydrofolic acid (DHF). […]

Data set [3] concerns the target T2, B. microti DHFR-TS (Babesia microti, UniProt A0A1R4AAV1). Described as above. The class given is biochemical. As to the method: as §3, §4, §5, §6, §7
The test system of data set [4] is B. duncani (WA-1). Put plainly: In vitro growth inhibition of B. duncani in human erythrocytes (SYBR Green-I). The class given is cell-based, Babesia duncani. Particulars: continuous in vitro culture in human erythrocytes, read-out: IC50 B. duncani.
The subject of data set [5] is B. duncani (WA-1). Put plainly: In vivo efficacy in mouse model of lethal B. duncani infection. Set-up: species or system C3H/HeJ mice. The protocol: The finding that JPC-2067 is effective against B. duncani in vitro led us to investigate the activity of its prodrug JPC-2056 in the mouse model of lethal infection (C3H/HeJ mice) ([57]). […] To evaluate the efficacy of JPC-2056, two groups of 5 female mice each were infected with 1 × 10^4 B. duncani-infected erythrocytes and at day 1 post-infection (DPI-1) received either a vehicle (PEG-400) or 30 mg/kg of JPC-2056 administered orally once a day for 10 days. […] However, parasitemia in these mice continued to increase over time reaching peak levels at DPI-12 (Fig. 3A and B). These animals succumbed to lethal B. duncani infection at DPI-13 (Fig. 3A and C).
as §2

The target in data set [6] is T1, B. duncani DHFR-TS. The arrangement: method as in PMID 37055610. Particulars: recent studies; cited from earlier work.
For the next data set, the system named is B. duncani. Set-up: method as in PMID 37055610. To be noted: previous studies; read-out: IC50 against B. duncani; cited from earlier work.
The conditions of data set [7]: in vivo; cited from earlier work.
The target of data set [8] is T2, B. microti DHFR-TS. Set-up: method as in PMID 37055610. Particulars: recent studies; cited from earlier work.
[9] abbreviates: 30 mg/kg orally once a day for 10 days.
Setting [10] is: 0.1 µM enzyme, 300 µM DHF, 300 µM NADPH.

T2 sequence (A0A1R4AAV1 entry or part of it): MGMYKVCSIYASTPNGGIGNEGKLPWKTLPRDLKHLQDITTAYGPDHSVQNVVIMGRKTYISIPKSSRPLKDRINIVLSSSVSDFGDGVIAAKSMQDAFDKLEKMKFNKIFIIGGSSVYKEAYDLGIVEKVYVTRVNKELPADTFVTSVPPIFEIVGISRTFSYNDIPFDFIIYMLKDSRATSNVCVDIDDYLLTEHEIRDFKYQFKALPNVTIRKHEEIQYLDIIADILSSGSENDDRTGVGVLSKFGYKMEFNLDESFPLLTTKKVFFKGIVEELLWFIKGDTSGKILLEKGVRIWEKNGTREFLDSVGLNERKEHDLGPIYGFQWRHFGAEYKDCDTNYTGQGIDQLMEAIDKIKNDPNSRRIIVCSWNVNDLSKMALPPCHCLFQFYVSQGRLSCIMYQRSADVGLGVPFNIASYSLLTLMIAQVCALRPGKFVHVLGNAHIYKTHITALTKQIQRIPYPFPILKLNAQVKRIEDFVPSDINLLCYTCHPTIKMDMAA
T1 sequence (A0AAD9UQZ8 entry or part of it): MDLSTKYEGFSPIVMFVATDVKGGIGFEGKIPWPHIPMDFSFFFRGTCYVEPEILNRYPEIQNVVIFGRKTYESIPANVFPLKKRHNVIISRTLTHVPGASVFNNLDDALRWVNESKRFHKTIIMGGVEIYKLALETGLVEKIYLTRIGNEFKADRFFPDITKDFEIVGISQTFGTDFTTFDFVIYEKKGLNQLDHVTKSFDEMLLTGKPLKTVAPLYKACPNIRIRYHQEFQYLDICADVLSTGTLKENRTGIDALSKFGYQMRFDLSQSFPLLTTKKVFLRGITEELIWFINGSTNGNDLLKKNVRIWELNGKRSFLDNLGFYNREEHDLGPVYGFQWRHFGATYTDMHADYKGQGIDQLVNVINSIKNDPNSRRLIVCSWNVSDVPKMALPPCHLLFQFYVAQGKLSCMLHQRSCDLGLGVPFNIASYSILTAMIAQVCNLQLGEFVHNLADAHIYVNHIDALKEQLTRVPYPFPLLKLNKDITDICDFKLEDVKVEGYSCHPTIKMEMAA

Consider `CC(C)NC(=N)NC(=N)NOCCCOc1ccc(OC(F)(F)F)cc1Cl` [JPC-2056], for which the “cytotoxicity (effect on human cell lines)” value in data set [1] is given as “no discernible effect”. Further, the 50% inhibitory concentration (IC50) in the data set with HCT116 is 1000 µM; with HepG2 it was 1000 µM; in the data set with HeLa, greater than 900 µM; in the data set on HEK293 it was 1000 µM; in the data set on B. duncani (WA-1) [4] (Babesia duncani, Erythrocyte), 0.8694 ± 0.004 µM; in the data set with B. duncani (WA-1) [4] it was 0.869 µM. Moreover, the adverse effects entry with B. microti (LabS1) (30 mg/kg once a day for 10 days) is “without observable adverse effects”. Further, the “outcome of B. microti infection” value in the data set with B. microti (LabS1) (30 mg/kg once a day for 10 days (DPI-1 to 10)) is recorded as “clearance of infection with no parasites detected up to DPI-45; also recorded: elimination of parasites”. Moreover, the “inhibitory activity against B. duncani DHFR-TS” value against B. duncani DHFR-TS [2] (Fig. S3A) is recorded as “no discernible inhibitory activity”. Moreover, on B. microti DHFR-TS [3] (Fig. S3B), the “inhibitory activity against B. microti DHFR-TS” value was “no discernible inhibitory activity”. Further, in the data set with B. duncani (WA-1) [5] (setting [9]), the “day animals succumbed to lethal infection” value is 13 DPI. For the same compound, the parasite emergence entry in the data set on B. duncani (WA-1) [5] (setting [9]) is recorded as “delay in parasite emergence”. Further, the “parasitemia compared to vehicle-treated mice” value with B. duncani (WA-1) [5] (30 mg/kg orally once a day for 10 days (DPI-1 to 10)) was “reduced peak parasitemia”.

Take `CC1(C)NC(=N)NC(=N)N1OCCCOc1ccc(OC(F)(F)F)cc1Cl` [JPC-2067]: in data set [1], the “cytotoxicity (effect on human cell lines)” value was “no discernible effect”. For the same compound, the IC50 is 1000 µM in the data set on HCT116; 1150 µM in the data set on HepG2; greater than 900 µM in the data set with HeLa; 1000 µM in the data set with HEK293; 0.0089 ± 0.002 µM in the data set on B. duncani (WA-1) [4] (Babesia duncani, Erythrocyte); 0.00893 µM in the data set with B. duncani (WA-1) [4]. Besides, the EC50 at B. duncani DHFR-TS [2] (setting [10]) turned out to be 0.001 µM; on B. microti DHFR-TS [3] (setting [10]), 0.0147 µM.

Take `CC1(C)N=C(N)N=C(N)N1OCCCOc1cc(Cl)c(Cl)cc1Cl` [WR99210]: the “inhibition of B. duncani DHFR-TS activity” value at B. duncani DHFR-TS [6] was “inhibits the activity”. Besides, the IC50 in the data set with B. duncani was 0.0005 µM. For the same compound, in data set [7], the bioavailability entry is recorded as “poor bioavailability” and the gastrointestinal tolerability entry is “caused gastrointestinal complications”. The “inhibition of B. microti DHFR-TS activity” value at B. microti DHFR-TS [8] is “inhibits the activity”.

These data come from paper PMC11373198, “In vitro efficacy of next-generation dihydrotriazines and biguanides against babesiosis and malaria parasites” (Antimicrobial Agents and Chemotherapy, 2024).
